Patent US20090124587A1, “METHODS FOR TREATING CANCER USING 17alpha-HYDROXYLASE/C17,20-LYASE INHIBITORS” (priority 2007, published 2009)
Like-named read-outs stand apart in the source and are kept apart here.

Assay: Food effect PK study, two single oral 1000 mg doses of abiraterone acetate, fed (high fat) vs fasted
Format: in vivo, human
Details: for clearance: read-out: Cl F obs (converted); for Vd/F: read-out: Vz F obs; for concentration at 1.017 h: sample time 1.017; for concentration at 6 h: sample time 6.000; for concentration at 2 h: sample time 2.000; for concentration at 4 h: sample time 4.000; for concentration at 8.033 h: sample time 8.033; for concentration at 24 h: sample time 24.000; for concentration at 48.083 h: sample time 48.083
Description: To measure the amount of abiraterone and abiraterone acetate in the samples, these compounds were extracted from 100 uL human plasma using solid phase extraction (SPE) with cation mixed-mode polymer cartridges. Extracts were evaporated to dryness before reconstitution and analysis. Chromatography was carried out using a Luna™ C5 column (5 μm, 50 mm×2.1 mm id) with a gradient mobile phase consisting of 10 mM ammonium acetate and 2% propan-2-ol in acetonitrile. The flow rate was 0.2 mL/min and the run time 10.5 minutes. Abiraterone and abiraterone acetate were ionized using the electrospray interface in positive ion mode. Detection of analytes was via tandem mass spectrometry (MS/MS) in the multiple reaction monitoring (MRM) mode.
PK modeling was conducted using a non-compartmental model, extra vascular input for plasma with WinNonLin Software®. Pharmacokinetic parameters estimated in the model include:
Based on the above results, the PK parameters for a single dose of 1000 mg/day of abiraterone acetate were further studied in the 3 subjects who were administered the 1000 mg/day dose and in 3 additional subjects. Two single oral doses (1000 mg) of abiraterone acetate were administered separately, one concomitantly with food of high fat content and one in fasting state. The first single dose was administered on day −9 with PK blood samples being taken at 1, 2, 4, 6, 8, 24, 48 and 72 hours post dose. The second single dose was administered on day −3 with PK blood samples being taken at 1, 2, 4, 6, 8, 24 and 48 hours post dose for analysis.

[1] = human, plasma, oral, 1000 mg, Patient 19, 1000 mg, Fasted
[2] = human, plasma, oral, 1000 mg, Patient 19, 1000 mg, Fed
[3] = human, plasma, oral, 1000 mg, Patient 19, Fasted
[4] = human, plasma, oral, 1000 mg, Patient 19, Fed
[5] = human, plasma, oral, 1000 mg, Patient 20, 1000 mg, Fasted
[6] = human, plasma, oral, 1000 mg, Patient 20, 1000 mg, Fed
[7] = human, plasma, oral, 1000 mg, Patient 20, Fasted
[8] = human, plasma, oral, 1000 mg, Patient 20, Fed
[9] = human, plasma, oral, 1000 mg, Patient 21, 1000 mg, Fasted
[10] = human, plasma, oral, 1000 mg, Patient 21, 1000 mg, Fed
[11] = human, plasma, oral, 1000 mg, Patient 21, Fasted
[12] = human, plasma, oral, 1000 mg, Patient 21, Fed
[13] = human, plasma, po, 1000 mg, mean, 1000 mg single oral dose, Fasted
[14] = human, plasma, po, 1000 mg, mean, 1000 mg single oral dose, Fed
[15] = mean, 1000 mg single oral dose, Fasted
[16] = mean, 1000 mg single oral dose, Fed

`C[C@]12CC[C@H](O)CC1=CC[C@@H]1[C@@H]2CC[C@]2(C)C(c3cccnc3)=CC[C@@H]12` [Abiraterone] showed a concentration at 4.033 hr (human, plasma, oral, 1000 mg, Patient 15, Fed, sample time 4.033 hr) of 484 nM, a concentration at 6.083 hr (human, plasma, oral, 1000 mg, Patient 15, Fed, sample time 6.083 hr) of 1120 nM and a concentration at 8.067 hr (human, plasma, oral, 1000 mg, Patient 15, Fed, sample time 8.067 hr) of 512 nM. It also gave a concentration at 24.05 hr (human, plasma, oral, 1000 mg, Patient 15, Fed, sample time 24.050 hr) of 84.3 nM, a concentration at 46.05 hr (human, plasma, oral, 1000 mg, Patient 15, Fed, sample time 46.050 hr) of 18.1 nM and a clearance [1] of 12200 mL/min. It also gave a Vd/F [1] of 8490 L, a clearance [2] of 4900 mL/min and a Vd/F [2] of 4250 L. The AUC(0-inf) [3] was 3.91 µM·h, the AUC(0-t) [3] was 3.8 µM·h and the Cmax [3] was 432 nM. For the same molecule, the Tmax [3] was 6 h, the concentration at 1.05 hr (human, plasma, oral, 1000 mg, Patient 19, Fasted, sample time 1.050 hr) was 0 nM and the concentration at 2.083 hr (human, plasma, oral, 1000 mg, Patient 19, Fasted, sample time 2.083 hr) was 71.9 nM. It also gave a concentration at 4.017 hr (human, plasma, oral, 1000 mg, Patient 19, Fasted, sample time 4.017 hr) of 334 nM, a concentration at 6 hr (human, plasma, oral, 1000 mg, Patient 19, Fasted, sample time 6.000 hr) of 432 nM and a concentration at 8.017 hr (human, plasma, oral, 1000 mg, Patient 19, Fasted, sample time 8.017 hr) of 177 nM. It also gave a concentration at 24.067 hr (human, plasma, oral, 1000 mg, Patient 19, Fasted, sample time 24.067 hr) of 21.6 nM, a concentration at 48.1 hr (human, plasma, oral, 1000 mg, Patient 19, Fasted, sample time 48.100 hr) of 9.1 nM and an AUC(0-inf) [4] of 9.73 µM·h. It also gave an AUC(0-t) [4] of 9.47 µM·h, a Cmax [4] of 1020 nM and a Tmax [4] of 6.13 h. The concentration at 0.967 hr (human, plasma, oral, 1000 mg, Patient 19, Fed, sample time 0.967 hr) was 0 nM, the concentration at 2.2 hr (human, plasma, oral, 1000 mg, Patient 19, Fed, sample time 2.200 hr) was 466 nM and the concentration at 3.933 hr (human, plasma, oral, 1000 mg, Patient 19, Fed, sample time 3.933 hr) was 973 nM. For the same molecule, the concentration at 6.133 hr (human, plasma, oral, 1000 mg, Patient 19, Fed, sample time 6.133 hr) was 1020 nM, the concentration at 8 hr (human, plasma, oral, 1000 mg, Patient 19, Fed, sample time 8.000 hr) was 344 nM and the concentration at 23.717 hr (human, plasma, oral, 1000 mg, Patient 19, Fed, sample time 23.717 hr) was 63.6 nM. For the same molecule, the concentration at 49.3 hr (human, plasma, oral, 1000 mg, Patient 19, Fed, sample time 49.300 hr) was 18 nM, the clearance [5] was 3680 mL/min and the Vd/F [5] was 4880 L. It also gave a clearance [6] of 2030 mL/min, a Vd/F [6] of 3210 L and an AUC(0-inf) [7] of 13 µM·h. For the same molecule, the AUC(0-t) [7] was 12.1 µM·h, the Cmax [7] was 1700 nM and the Tmax [7] was 2.27 h. For the same molecule, the concentration at 1.017 h [7] was 58.5 nM, the concentration at 2.267 h (human, plasma, oral, 1000 mg, Patient 20, Fasted, sample time 2.267) was 1700 nM and the concentration at 3.833 h (human, plasma, oral, 1000 mg, Patient 20, Fasted, sample time 3.833) was 1270 nM. For the same molecule, the concentration at 6 h [7] was 976 nM, the concentration at 7.917 h (human, plasma, oral, 1000 mg, Patient 20, Fasted, sample time 7.917) was 256 nM and the concentration at 24.283 h (human, plasma, oral, 1000 mg, Patient 20, Fasted, sample time 24.283) was 118 nM. It also gave a concentration at 48.417 h (human, plasma, oral, 1000 mg, Patient 20, Fasted, sample time 48.417) of 40.8 nM, an AUC(0-inf) [8] of 23.5 µM·h and an AUC(0-t) [8] of 22.8 µM·h. For the same molecule, the Cmax [8] was 1580 nM, the Tmax [8] was 8.03 h and the concentration at 1.017 h [8] was 32.2 nM. The concentration at 2 h [8] was 201 nM, the concentration at 4 h [8] was 422 nM and the concentration at 6 h [8] was 1400 nM. The concentration at 8.033 h [8] was 1580 nM, the concentration at 24 h [8] was 152 nM and the concentration at 47.517 h (human, plasma, oral, 1000 mg, Patient 20, Fed, sample time 47.517) was 55.4 nM. For the same molecule, the concentration at 71.333 h (human, plasma, oral, 1000 mg, Patient 20, Fed, sample time 71.333) was 25.3 nM, the clearance [9] was 6610 mL/min and the Vd/F [9] was 7190 L. For the same molecule, the clearance [10] was 6180 mL/min, the Vd/F [10] was 5180 L and the AUC(0-inf) [11] was 7.21 µM·h. For the same molecule, the AUC(0-t) [11] was 6.93 µM·h, the Cmax [11] was 648 nM and the Tmax [11] was 2.17 h. The concentration at 1 h (human, plasma, oral, 1000 mg, Patient 21, Fasted, sample time 1.000) was 414 nM, the concentration at 2.167 h (human, plasma, oral, 1000 mg, Patient 21, Fasted, sample time 2.167) was 648 nM and the concentration at 4.15 h (human, plasma, oral, 1000 mg, Patient 21, Fasted, sample time 4.150) was 360 nM. It also gave a concentration at 6.117 h (human, plasma, oral, 1000 mg, Patient 21, Fasted, sample time 6.117) of 396 nM, a concentration at 8.05 h (human, plasma, oral, 1000 mg, Patient 21, Fasted, sample time 8.050) of 231 nM and a concentration at 24.333 h (human, plasma, oral, 1000 mg, Patient 21, Fasted, sample time 24.333) of 65.5 nM. The concentration at 48.083 h [11] was 16.4 nM, the concentration at 71.7 h (human, plasma, oral, 1000 mg, Patient 21, Fasted, sample time 71.700) was 15.2 nM and the AUC(0-inf) [12] was 7.71 µM·h. For the same molecule, the AUC(0-t) [12] was 7.45 µM·h, the Cmax [12] was 1280 nM and the Tmax [12] was 6 h. For the same molecule, the concentration at 1.167 h (human, plasma, oral, 1000 mg, Patient 21, Fed, sample time 1.167) was 17.3 nM, the concentration at 2 h [12] was 64.3 nM and the concentration at 4 h [12] was 102 nM. For the same molecule, the concentration at 6 h [12] was 1280 nM, the concentration at 8.033 h [12] was 372 nM and the concentration at 24 h [12] was 49.3 nM. The concentration at 48.083 h [12] was 18.9 nM, the AUC(0-inf) [13] was 5.32 µM·h and the AUC(0-t) [13] was 5.03 µM·h. For the same molecule, the Cmax [13] was 659 nM, the Tmax [13] was 3.09 h and the Vd/F [13] was 10100 L. For the same molecule, the AUC(0-inf) [14] was 12.4 µM·h, the AUC(0-t) [14] was 12.1 µM·h and the Cmax [14] was 1400 nM. For the same molecule, the Tmax [14] was 5.21 h, the Vd/F [14] was 3800 L and the “Cl F obs” value [15] was 861.6 L/h. The HL [15] was 9.9 h, the “Cl F obs” value [16] was 260.2 L/h and the HL [16] was 10.9 h. The “effect of food on drug levels” value (patient 21) was “negligible” and the “difference in mean drug levels between the dosing regimes (fed vs fasted)” value (previously (before extended cohort)) was “up to a four fold difference”.
